The record followed here is PubChem BioAssay AID1996.

Converted amounts (≈) assume the structure as drawn.

The conditions of the data set: buffer; pH 7.4; 200.0 µM.
In general, solubility (kinetic) refers to solubility judged after dilution from a stock solution rather than from solid. With `CC1CCOC2(O1)C(=O)Nc1ccccc12` (configuration not stated), the solubility (kinetic) is 24.4 µg/mL (≈ 111 µM).

In turn, `Cc1ccc(S(=O)(=O)NCc2ccccc2)cc1C(=O)NCc1ccccn1` gave a kinetic solubility of 48.1 µg/mL (≈ 122 µM).

As for `Cc1ccc(C(=O)N2CCN(C(=O)c3ccc(C)cc3)C2)cc1`, the kinetic solubility was above 46.3 µg/mL.

In turn, `NC(=O)C1c2ccccc2Oc2ccccc21` had a kinetic solubility of 24.8 µg/mL (≈ 110 µM).

With `CCCC12CN3CC(CCC)(CN(C1)C3c1ccco1)C2=O` (configuration not stated), the solubility (kinetic) was above 45.4 µg/mL.

`O=Cc1c[nH]c2cccc(OCc3ccccc3)c12` came in with a solubility (kinetic) of 4.6 µg/mL (≈ 18.3 µM).

Molecule `COc1ccc(/C=C(/NC(=O)c2ccccc2)C(=O)N2CCCC2)cc1` came in with a solubility (kinetic) above 52.6 µg/mL.

Regarding `CC1(C)C(=O)N(c2ccccc2)C1c1ccccc1O` (configuration not stated), the kinetic solubility is above 40.1 µg/mL.

`O=C(COC(=O)c1cccc2ccccc12)NCC1CCCO1` (configuration not stated) returned a kinetic solubility above 47 µg/mL.

On to `Nc1ccc2oc(=O)c(-c3ccccc3)cc2c1`, for which the solubility (kinetic) is 19.3 µg/mL (≈ 81.3 µM).

The molecule `Cc1cc(C(=O)OCC(=O)N2CCC(C)CC2)c2ccccc2n1` had a kinetic solubility above 49 µg/mL.

On to `Cc1ccc(Cl)cc1NC(=S)NCCCSC1CCCCC1`, for which the solubility (kinetic) was 2.5 µg/mL (≈ 7 µM).

Turning to `CC(C)Cc1csc(NC(=O)C(C)C)c1C(=O)O`, the solubility (kinetic) is above 40.4 µg/mL.

Regarding `CCOC(=O)c1cnc(SCC#N)nc1N`, the solubility (kinetic) was above 35.7 µg/mL.

Take `Cc1cnc(C(=O)Nc2ccc(N3CCCCC3)cc2)cn1`: the kinetic solubility amounted to 4.2 µg/mL (≈ 14.2 µM).

As to `O=S(=O)(Cc1ccccc1Cl)NCc1ccccc1`, the solubility (kinetic) was determined as 32.1 µg/mL (≈ 109 µM).

In the case of `COc1ccc(NC(=O)CN(C)C(=O)CCc2ccccc2)cc1`, the kinetic solubility stood at 40.7 µg/mL (≈ 125 µM).

In turn, `Clc1ccc2nc(-c3ccccc3)nc(C(Cl)Cl)c2c1` came in with a kinetic solubility below 0.3 µg/mL.

`CC(C)c1ccc(NC(=O)NCc2cccnc2)cc1` yielded a solubility (kinetic) above 40.4 µg/mL.

`COc1ccc(-c2csc(NC(=O)Nc3ccccc3)n2)cc1` yielded a kinetic solubility of 1.8 µg/mL (≈ 5.53 µM).

Molecule `Cl.O=S1(=O)CCC(NC2CCCC2)C1` (configuration not stated) showed a kinetic solubility above 36 µg/mL.

`COc1ccccc1C1(O)C(=O)Nc2ccc(C)cc21` (configuration not stated) gave a kinetic solubility above 40.4 µg/mL.

With `COc1ccc(Cl)cc1NC(=O)C1CCN(S(C)(=O)=O)CC1`, the solubility (kinetic) is above 52 µg/mL.

As for `Cc1onc(-c2ccccc2)c1C(=O)NCC(=O)Nc1cc(Cl)ccc1Cl`, the kinetic solubility worked out at 9.4 µg/mL (≈ 23.3 µM).

Take `Cc1cc(NS(=O)(=O)c2cccc([N+](=O)[O-])c2)no1`: the solubility (kinetic) was 32.5 µg/mL (≈ 115 µM).

`CC(C#N)Sc1ccc(S(=O)(=O)N2CCCC2)cn1` (configuration not stated): the solubility (kinetic) was 37.7 µg/mL (≈ 127 µM).

As for `COc1ccccc1NC(=O)Nc1ccc(N2CCOCC2)cc1`, the solubility (kinetic) is 45.8 µg/mL (≈ 140 µM).

As for `COc1ccc(-n2c(CN3CCOCC3)nc3ccccc3c2=O)c(OC)c1`, the solubility (kinetic) was above 57.2 µg/mL.

Regarding `O=C(Nc1ccccc1Br)c1c(F)cccc1Cl`, the kinetic solubility was 13.5 µg/mL (≈ 41.1 µM).

`O=c1cc(-c2ccccc2)nc(SCCOc2ccccc2Cl)[nH]1`: the kinetic solubility came to 0.4 µg/mL (≈ 1.11 µM).

For `CN(C(=O)COC(=O)Cn1cnc2ccccc21)C1CCCCC1`, the solubility (kinetic) is 45 µg/mL (≈ 137 µM).

`Cc1ccc(NC(=O)Nc2ccc3c(c2)OCO3)cc1F` yielded a solubility (kinetic) below 0.3 µg/mL.

Take `Cc1nc(/C(N)=N/OC(=O)c2cccc(Cl)c2)c(C(F)(F)F)o1`: the solubility (kinetic) was above 52.2 µg/mL.

With `CC(=O)c1cc(C#N)c(SCc2ccccn2)nc1C`, the kinetic solubility was determined as 10.2 µg/mL (≈ 36 µM).

`CCS(=O)(=O)c1ccccc1C(=O)NC1CCCc2ccccc21` (configuration not stated) had a solubility (kinetic) of 42.6 µg/mL (≈ 124 µM).

`COc1cccc(NC(=O)COC(=O)C2CC2)c1` returned a solubility (kinetic) above 37.4 µg/mL.

Regarding `COc1ccccc1N1CCN(C(=S)NC(=O)/C=C/c2ccccc2)CC1`, the kinetic solubility came to 1.3 µg/mL (≈ 3.41 µM).

In turn, `CC(=O)Nc1ccc(NC(=O)COC(=O)[C@@H]2CCCN2C(=O)c2cccs2)cc1` registered a solubility (kinetic) above 62.3 µg/mL.

Take `Cc1nc(NC(=O)c2ccncc2)sc1C(=O)N(C)C`: the solubility (kinetic) is above 43.6 µg/mL.

On to `O=C(CSc1cccc2cccnc12)N/N=C/c1ccncc1`, for which the solubility (kinetic) was above 48.4 µg/mL.

In turn, `CC(CNC(=O)c1ccccc1Cl)c1ccccc1` (configuration not stated) registered a solubility (kinetic) of 36.6 µg/mL (≈ 134 µM).

On to `CCC(=O)c1cn(CC(=O)Nc2cc(C)ccc2C)c2ccccc12`, for which the solubility (kinetic) was below 0.4 µg/mL.

`Cc1ccc(S(=O)(=O)N2CCN(c3ccccc3)CC2)cc1` returned a solubility (kinetic) below 0.3 µg/mL.

`O=C(OCc1ccc(Cl)c(Cl)c1)c1cccnc1Cl` came in with a kinetic solubility below 0.7 µg/mL.

On to `Cc1ccc(SCC(=O)N(C)C2CCS(=O)(=O)C2)c(C)c1` (configuration not stated), for which the solubility (kinetic) was above 49.1 µg/mL.

Turning to `CCN1CCN(C(=O)/C=C/c2ccc(C(C)C)cc2)CC1`, the kinetic solubility was above 43 µg/mL.

As for `O=C(Nc1ccccc1)Nc1ccccc1Br`, the solubility (kinetic) is 2.1 µg/mL (≈ 7.21 µM).

On to `Cc1cc(Cl)ccc1NC(=S)NCC(O)c1ccccc1` (configuration not stated), for which the kinetic solubility was above 48.1 µg/mL.

`COc1ccc(NC(=S)Nc2ccccn2)cc1` came in with a kinetic solubility of 2.8 µg/mL (≈ 10.8 µM).

As to `CC(CN1CCCC1)OC(=O)c1cccc(F)c1.Cl` (configuration not stated), the kinetic solubility turned out to be 39.6 µg/mL.

`COc1cccc(CN2CCNCC2)c1OC`: the solubility (kinetic) stood at 20.3 µg/mL (≈ 85.9 µM).

`COCc1cc(Sc2ccc(Cl)cc2)nc(C)n1` gave a solubility (kinetic) of 40.1 µg/mL (≈ 143 µM).
